Consider five molecules from patent publication US9023789B2, “Amylin analogs and pharmaceutical compositions thereof” (Novo Nordisk A/S, priority 2012, dated 2015).

In test [1] the target is T1, human amylin 3(a) receptor (human calcitonin receptor + RAMP-3) in BHK570 cells (Homo sapiens, UniProt O60896+P30988).
T1 construct: expressed in transfected cells
Put plainly: ASSAY (II)a functional assay, human amylin receptor (CRE luciferase). Type of test: cell-based. Particulars: for EC50: human amylin receptor functional potency, assay (II), read-out: hAmylin-R funct. EC50. In outline: (§1)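 BHK cells stably carrying a CRE-luciferase reporter plus calcitonin receptor, or calcitonin receptor with RAMP-3 for the amylin 3(a) receptor, were seeded and kept overnight at 37° C. Compounds were added in assay medium with 10% FBS and 10 mM Hepes, pH 7.4, for 3 hours at 37° C, then luminescence was counted.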

Test [2] has as its target T2, human calcitonin (a) receptor in BHK570 cells (Homo sapiens, UniProt P30988).
T2 construct: expressed in transfected cells
T2 sequence (P30988 25-474): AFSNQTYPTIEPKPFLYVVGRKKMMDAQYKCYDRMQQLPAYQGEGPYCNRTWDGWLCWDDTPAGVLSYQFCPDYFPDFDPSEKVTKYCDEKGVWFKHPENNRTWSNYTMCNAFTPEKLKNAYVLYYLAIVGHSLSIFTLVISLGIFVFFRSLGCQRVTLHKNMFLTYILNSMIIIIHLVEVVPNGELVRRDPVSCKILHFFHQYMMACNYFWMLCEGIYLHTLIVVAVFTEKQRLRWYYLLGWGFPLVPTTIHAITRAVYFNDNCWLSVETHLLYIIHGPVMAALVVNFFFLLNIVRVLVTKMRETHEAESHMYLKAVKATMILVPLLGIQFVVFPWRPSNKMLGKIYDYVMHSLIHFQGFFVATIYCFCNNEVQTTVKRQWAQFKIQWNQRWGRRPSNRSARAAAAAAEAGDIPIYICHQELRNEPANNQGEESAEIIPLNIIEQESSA
The experiment in a line: ASSAY (II)a functional assay, human calcitonin receptor (CRE luciferase). Type of test: cell-based. The following applies: read-out: hCTR funct. EC50. In outline: as §1

For test [3], the target named is T3, human calcitonin receptor (Homo sapiens, UniProt P30988).
T3 construct: expressed in transfected cells
T3 sequence (P30988 25-474): T2 sequence (P30988 25-474)
Put plainly: ASSAY (VII) binding to the human calcitonin receptor (SPA, 125I-Calcitonin).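 Further: cell membranes (35 ng/µL) combined with SPA beads in 40 µL of pH 7.4 Hepes buffer, 384-well format, signal counted on a TopCounter instrument.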 Particulars: read-out: hCTR bind IC50.

The mark [4] stands for this setting: hCTR funct. EC50 divided by hAmylin-R funct. EC50.
The mark [5] stands for this setting: hCTR funct. EC50 over hAmylin-R funct. EC50.
Setting [6] is: human functional selectivity: hCTR funct. EC50 / hAmylin-R funct. EC50.
Setting [7] is: hCTR funct. EC50 / hAmylin-R funct. EC50.

Numbered stars: 1 amine (or outer) side, 2 acyl side, 3 side chain; on linkers, the order of the positions; unused ones are H or OH. Bridge positions count the residues as written; N and C are the ends. Side chains are listed from the residue outwards. Peptide text beside a SMILES is read from it. * marks the point of attachment. C20 diacid = O=C(O)CCCCCCCCCCCCCCCCCCC(=O)*; γGlu = O=C(O)[C@H](CCC(=O)[*:2])N[*:1]

T1 sequence (O60896 24-148, one chain of several): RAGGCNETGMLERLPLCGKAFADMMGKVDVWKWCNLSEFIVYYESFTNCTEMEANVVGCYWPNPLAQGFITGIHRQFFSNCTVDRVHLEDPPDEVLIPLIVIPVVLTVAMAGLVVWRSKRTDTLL

The term EC50 denotes the concentration giving half of the maximal effect. As a reminder, the IC50 is the point on the concentration scale where inhibition reaches its midpoint. Regarding `CC[C@H](C)[C@H](NC(=O)[C@H](C)NC(=O)CNC(=O)[C@H](Cc1ccccc1)NC(=O)[C@H](CC(N)=O)NC(=O)[C@@H]1CCCN1C(=O)[C@H](CO)NC(=O)[C@H](CO)NC(=O)[C@H](Cc1c[nH]cn1)NC(=O)[C@H](CCCNC(=N)N)NC(=O)[C@H](CC(C)C)NC(=O)[C@H](Cc1ccccc1)NC(=O)[C@H](CCC(=O)O)NC(=O)[C@H](C)NC(=O)[C@H](CC(C)C)NC(=O)[C@H](CCCNC(=N)N)NC(=O)[C@H](CCC(N)=O)NC(=O)[C@@H](NC(=O)[C@H](C)NC(=O)[C@@H]1CSSC[C@H](NC(=O)[C@H](CCCCN)NC(=O)CC[C@H](NC(=O)CCCCCCCCCCCCCCCCCCC(=O)O)C(=O)O)C(=O)N[C@@H](CC(N)=O)C(=O)N[C@@H]([C@@H](C)O)C(=O)N[C@@H](C)C(=O)N[C@@H]([C@@H](C)O)C(=O)N1)[C@@H](C)O)C(=O)N1CCC[C@H]1C(=O)N[C@@H](CO)C(=O)N[C@@H](CO)C(=O)N[C@H](C(=O)N[C@@H](CC(N)=O)C(=O)N[C@H](C(=O)NCC(=O)N[C@@H](Cc1c[nH]cn1)C(=O)N[C@@H](CC(N)=O)C(=O)N[C@H](C(=O)N[C@@H](Cc1ccc(O)cc1)C(N)=O)[C@@H](C)O)C(C)C)[C@@H](C)O` [Example 17] ({C20 diacid-γGlu}-KCNTATCATQRLAEFLRHSSPNFGAIPSSTNVGHNTY-NH2; disulfide 2-7 (inferred)), the “Ratio hCT/hAmylin funct.” value in test [1] (setting [4]), in test [1] (setting [5]) and in test [1] (setting [6]) was 8.8 each time. Moreover, the EC50 in test [1] came to 0.268 nM; in test [2], 2.35 nM. Also, the IC50 in test [3] came to 10.9 nM.
As for `CC[C@H](C)[C@H](NC(=O)[C@H](C)NC(=O)CNC(=O)[C@H](Cc1ccccc1)NC(=O)[C@H](CC(N)=O)NC(=O)[C@@H]1CCCN1C(=O)[C@H](CO)NC(=O)[C@H](CO)NC(=O)[C@H](Cc1c[nH]cn1)NC(=O)[C@H](CCCNC(=N)N)NC(=O)[C@H](CC(C)C)NC(=O)[C@H](Cc1ccccc1)NC(=O)[C@H](CCC(=O)O)NC(=O)[C@H](C)NC(=O)[C@H](CC(C)C)NC(=O)[C@H](CCCNC(=N)N)NC(=O)[C@H](CCC(N)=O)NC(=O)[C@@H](NC(=O)[C@H](C)NC(=O)[C@@H]1CSSC[C@H](NC(=O)[C@H](CCCCN)NC(=O)CC[C@H](NC(=O)CCCCCCCCCCCCCCCCCCC(=O)O)C(=O)O)C(=O)N[C@@H](CC(N)=O)C(=O)N[C@@H]([C@@H](C)O)C(=O)N[C@@H](C)C(=O)N[C@@H]([C@@H](C)O)C(=O)N1)[C@@H](C)O)C(=O)N1CCC[C@H]1C(=O)N[C@@H](CO)C(=O)N[C@@H](CO)C(=O)N[C@H](C(=O)N[C@@H](CC(N)=O)C(=O)N[C@H](C(=O)NCC(=O)N[C@@H](CO)C(=O)N[C@@H](CC(=O)O)C(=O)N[C@H](C(=O)N1CCC[C@H]1C(N)=O)[C@@H](C)O)C(C)C)[C@@H](C)O` [Example 11] ({C20 diacid-γGlu}-KCNTATCATQRLAEFLRHSSPNFGAIPSSTNVGSDTP-NH2; disulfide 2-7 (inferred)), the “Ratio hCT/hAmylin funct.” value in test [1] (setting [7]), in test [1] (setting [4]), in test [1] (setting [5]) and in test [1] (setting [6]) was 0.9 each time. For the same molecule, the EC50 stood at 0.12 nM in test [1] and 0.112 nM in test [2]. Besides, the 50% inhibitory concentration (IC50) in test [3] stood at 0.101 nM.
In the case of `CC[C@H](C)[C@H](NC(=O)[C@H](C)NC(=O)CNC(=O)[C@H](Cc1ccccc1)NC(=O)[C@H](CC(N)=O)NC(=O)[C@@H]1CCCN1C(=O)[C@H](CO)NC(=O)[C@H](CO)NC(=O)[C@H](Cc1c[nH]cn1)NC(=O)[C@H](CCCNC(=N)N)NC(=O)[C@H](CC(C)C)NC(=O)[C@H](Cc1ccccc1)NC(=O)[C@H](CCC(=O)O)NC(=O)[C@H](C)NC(=O)[C@H](CC(C)C)NC(=O)[C@H](CCCNC(=N)N)NC(=O)[C@H](CCC(N)=O)NC(=O)[C@@H](NC(=O)[C@H](C)NC(=O)[C@@H]1CSSC[C@H](NC(=O)[C@H](CCCCN)NC(=O)CC[C@H](NC(=O)CC[C@H](NC(=O)CCCCCCCCCCCCCCCCCCC(=O)O)C(=O)O)C(=O)O)C(=O)N[C@@H](CC(N)=O)C(=O)N[C@@H]([C@@H](C)O)C(=O)N[C@@H](C)C(=O)N[C@@H]([C@@H](C)O)C(=O)N1)[C@@H](C)O)C(=O)N1CCC[C@H]1C(=O)N[C@@H](CO)C(=O)N[C@@H](CO)C(=O)N[C@H](C(=O)N[C@@H](CC(N)=O)C(=O)N[C@H](C(=O)NCC(=O)N[C@@H](CO)C(=O)N[C@@H](CC(N)=O)C(=O)N[C@H](C(=O)N[C@@H](Cc1ccc(O)cc1)C(N)=O)[C@@H](C)O)C(C)C)[C@@H](C)O` [Example 15] ({C20 diacid-γGlu-γGlu}-KCNTATCATQRLAEFLRHSSPNFGAIPSSTNVGSNTY-NH2; disulfide 2-7 (inferred)), the “Ratio hCT/hAmylin funct.” value in test [1] (setting [4]), in test [1] (setting [5]) and in test [1] (setting [6]) was 8.9 each time. Moreover, the figures for the EC50 in test [1] and in test [2] were 0.386 nM and 3.43 nM, respectively. For the same molecule, the IC50 in test [3] is 15.5 nM.
For the molecule `CC[C@H](C)[C@H](NC(=O)[C@H](C)NC(=O)CNC(=O)[C@H](Cc1ccccc1)NC(=O)[C@H](CC(N)=O)NC(=O)[C@@H]1CCCN1C(=O)[C@H](CO)NC(=O)[C@H](CO)NC(=O)[C@H](Cc1c[nH]cn1)NC(=O)[C@H](CCCNC(=N)N)NC(=O)[C@H](CC(C)C)NC(=O)[C@H](Cc1ccccc1)NC(=O)[C@H](Cc1c[nH]cn1)NC(=O)[C@H](C)NC(=O)[C@H](CC(C)C)NC(=O)[C@H](CCCNC(=N)N)NC(=O)[C@H](CCC(N)=O)NC(=O)[C@@H](NC(=O)[C@H](C)NC(=O)[C@@H]1CSSC[C@H](NC(=O)[C@@H](N)CCCCNC(=O)CC[C@H](NC(=O)CCCCCCCCCCCCCCCCCCC(=O)O)C(=O)O)C(=O)N[C@@H](CC(N)=O)C(=O)N[C@@H]([C@@H](C)O)C(=O)N[C@@H](C)C(=O)N[C@@H]([C@@H](C)O)C(=O)N1)[C@@H](C)O)C(=O)N1CCC[C@H]1C(=O)N[C@@H](CO)C(=O)N[C@@H](CO)C(=O)N[C@H](C(=O)N1CCC[C@H]1C(=O)N[C@H](C(=O)NCC(=O)N[C@@H](CO)C(=O)N[C@@H](CC(N)=O)C(=O)N[C@H](C(=O)N[C@@H](Cc1ccc(O)cc1)C(N)=O)[C@@H](C)O)C(C)C)[C@@H](C)O` [Example 62] (H-K([γGlu-C20 diacid])CNTATCATQRLAHFLRHSSPNFGAIPSSTPVGSNTY-NH2; disulfide 2-7; N-terminus assumed), the “Ratio hCT/hAmylin funct.” value in test [1] (setting [4]), in test [1] (setting [5]) and in test [1] (setting [6]) was 12.3 throughout. For the same molecule, the half-maximal effective concentration (EC50) in test [1] worked out at 0.044 nM; in test [2], 0.539 nM. Moreover, the IC50 in test [3] was 6.17 nM.
Turning to `CC[C@H](C)[C@H](NC(=O)[C@H](C)NC(=O)CNC(=O)[C@H](Cc1ccccc1)NC(=O)[C@H](CC(N)=O)NC(=O)[C@@H]1CCCN1C(=O)[C@H](CO)NC(=O)[C@H](CO)NC(=O)[C@H](Cc1c[nH]cn1)NC(=O)[C@H](CCCNC(=N)N)NC(=O)[C@H](CC(C)C)NC(=O)[C@H](Cc1ccccc1)NC(=O)[C@H](CCC(=O)O)NC(=O)[C@H](C)NC(=O)[C@H](CC(C)C)NC(=O)[C@H](CCCNC(=N)N)NC(=O)[C@H](CCC(N)=O)NC(=O)[C@@H](NC(=O)[C@H](C)NC(=O)[C@@H]1CSSC[C@H](NC(=O)[C@H](CCCCN)NC(=O)CC[C@H](NC(=O)CCCCCCCCCCCCCCCCCCC(=O)O)C(=O)O)C(=O)N[C@@H](CC(N)=O)C(=O)N[C@@H]([C@@H](C)O)C(=O)N[C@@H](C)C(=O)N[C@@H]([C@@H](C)O)C(=O)N1)[C@@H](C)O)C(=O)N[C@@H](CC(C)C)C(=O)N1CCC[C@H]1C(=O)N[C@@H](CO)C(=O)N[C@H](C(=O)N[C@@H](CC(N)=O)C(=O)N[C@H](C(=O)NCC(=O)N[C@@H](CO)C(=O)N[C@@H](CCC(=O)O)C(=O)N[C@H](C(=O)N[C@@H](Cc1ccc(O)cc1)C(N)=O)[C@@H](C)O)C(C)C)[C@@H](C)O` [Example 33] ({C20 diacid-γGlu}-KCNTATCATQRLAEFLRHSSPNFGAILPSTNVGSETY-NH2; disulfide 2-7), the “Ratio hCT/hAmylin funct.” value in test [1] (setting [7]), in test [1] (setting [5]) and in test [1] (setting [6]) was 2.2 throughout. For the same molecule, the half-maximal effective concentration (EC50) was found to be 0.243 nM in test [1] and 0.528 nM in test [2]. The 50% inhibitory concentration (IC50) in test [3] stood at 3.61 nM.
